Values after ≈ are worked out from the molar mass of the structure shown. “Also recorded” adds a separate entry of the source. Counter-ions that a name gives are not always drawn.
Assays:
Pasteurella multocida = assay: Antibacterial activity, Pasteurella multocida; format: cell-based
M. synoviae ATCC 25204 = assay: M. synoviae-induced airsacculitis of chicken; format: in vivo, chicken (white leghorn chicks) infected with M. synoviae
Description: 3. M. synoviae-induced airsacculitis of chicken 0.5 ml volumes of a broth culture containing about 10^8 CFU of M. synoviae ATCC No. 25204 were injected into the left abdominal air sacs of groups of five, one week old, specific pathogen free (SPF) white leghorn chicks. […] Seven days after infection the chicks were autopsied and the air sacs were examined macroscopically for mycoplasmal lesions and microbiologically for the presence of M. synoviae.

Haemophilus influenzae = assay: Antibacterial spectrum (MIC), Haemophilus influenzae; format: cell-based
[1] = Blood and urinary excretion levels, rat; format: in vivo; details: 100 mg/kg; for Cmax: blood, read-out: Peak Level (blood); for dose excreted: urine, read-out: Urinary Recovery
Source text: (§1) The results of administering pseudomonic acid to four different animal species are shown in Table 2 in terms of peak blood levels and urinary recovery.

Streptococcus pneumoniae = assay: Antibacterial spectrum (MIC), Streptococcus pneumoniae; format: cell-based
Streptococcus pyogenes = assay: Antibacterial spectrum (MIC), Streptococcus pyogenes; format: cell-based
Toxicity (LD50), rat = format: in vivo; details: for LD50: in vivo
streptococci = assay: Antibacterial spectrum, streptococci; format: cell-based; details: most streptococci
Neisseria meningitidis = assay: Antibacterial spectrum (MIC), Neisseria meningitidis; format: cell-based
M. pulmonis 'JB' [2] = assay: M. pulmonis-induced arthritis of mice; details: for Number of mice with arthritis/total number mice: 200 mg/kg × 5 s.c.; for prevented the development of arthritis: 200 mg/kg s.c. daily, five consecutive days
Toxicity (LD50), mouse = format: in vivo; details: for LD50: in vivo
[3] = system: Staphylococcus epidermidis; assay: Antibacterial spectrum (MIC), Staphylococcus epidermidis; format: cell-based
[4] = Blood and urinary excretion levels, mouse; format: in vivo; details: 50 mg/kg; for Cmax: blood, read-out: Peak Level (blood); for dose excreted: urine, read-out: Urinary Recovery
Source text: as §1

Streptococcus faecalis = assay: Antibacterial spectrum (MIC), Streptococcus faecalis; format: cell-based; details: Enterococcus faecalis
[5] = system: Bordetella bronchiseptica; assay: Antibacterial activity, Bordetella bronchiseptica; format: cell-based
staphylococci = assay: Antibacterial spectrum, staphylococci; format: cell-based
Gram-negative bacilli = assay: Antibacterial spectrum (MIC), Gram-negative bacilli
[6] = Blood and urinary excretion levels, squirrel monkey; format: in vivo; details: 100 mg/kg; for Cmax: blood, read-out: Peak Level (blood); for dose excreted: urine, read-out: Urinary Recovery
Source text: as §1

Staphylococcus aureus = assay: Antibacterial spectrum (MIC), Staphylococcus aureus; format: cell-based
Mycoplasma species = assay: Antibacterial spectrum (MIC), Mycoplasma species
[7] = Blood and urinary excretion levels, dog; format: in vivo; details: 100 mg/kg; for Cmax: blood, read-out: Peak Level (blood); for dose excreted: urine, read-out: Urinary Recovery
Source text: as §1

Neisseria gonorrhoeae = assay: Antibacterial spectrum (MIC), Neisseria gonorrhoeae; format: cell-based
M. suipneumoniae (Laber) = assay: Antimycoplasmal MIC, metabolic-inhibition test, M. suipneumoniae (Laber); format: cell-based; details: Mesomycoplasma hyopneumoniae, 168 h, dilutions 250-0.5 μg/ml, 37° C., seven days, read-out: MIC (in vitro antimycoplasmal activity)
M. pulmonis 'JB' [8] = assay: Antimycoplasmal MIC, metabolic-inhibition test, M. pulmonis 'JB'; format: cell-based; details: Mycoplasmopsis pulmonis, 168 h, dilutions 250-0.5 μg/ml, 37° C., seven days, read-out: MIC (in vitro antimycoplasmal activity)
M. pneumoniae 427 a = assay: Antimycoplasmal MIC, metabolic-inhibition test, M. pneumoniae 427 a; format: cell-based; details: Mycoplasmoides pneumoniae, 168 h, dilutions 250-0.5 μg/ml, 37° C., seven days, read-out: MIC (in vitro antimycoplasmal activity)
M. dispar H225 = assay: Antimycoplasmal MIC, metabolic-inhibition test, M. dispar H225; format: cell-based; details: 168 h, dilutions 250-0.5 μg/ml, 37° C., seven days, read-out: MIC (in vitro antimycoplasmal activity)
M. gallisepticum S6 = assay: Antimycoplasmal MIC, metabolic-inhibition test, M. gallisepticum S6; format: cell-based; details: Mycoplasmoides gallisepticum, 168 h, dilutions 250-0.5 μg/ml, 37° C., seven days, read-out: MIC (in vitro antimycoplasmal activity)
[9] = system: mycoplasmas from human and veterinary sources; assay: Antimycoplasmal activity in vitro, overall; format: cell-based
Description: 1. The minimal inhibitory concentrations (MIC) of pseudomonic acid and methyl pseudomonate were determined in Microtitre plates, by a modification of the metabolic-inhibition test (Taylor-Robinson, 1967). The compounds were serially diluted in sterile de-ionised water to give a range of concentrations from 250-0.5 μg/ml. Mycoplasma broth containing 1% (w/v) of glucose and 0.005% (w/v) of phenon red, was added at a strength to compensate for its dilution by the aqueous drug solution. Approximately 10^4 colony forming units of mycoplasma were added to each concentration of drug. Drug-free infected, noninfected and pH control wells were included on each plate. Plates were sealed with cellotape and incubated at 37° C. for seven days. The MIC was the lowest concentration of compound that prevented a colour change in the mycoplasma broth, caused by the metabolism of glucose by the mycoplasmas.

M. fermentans MW KL 4 = assay: Antimycoplasmal MIC, metabolic-inhibition test, M. fermentans MW KL 4; format: cell-based; details: Mycoplasmopsis fermentans, MWKL4, 168 h, dilutions 250-0.5 μg/ml, 37° C., seven days, read-out: MIC (in vitro antimycoplasmal activity)
M. bovis 25025 = assay: microbe, parasite or virus in culture; format: cell-based; details: 25025, 168 h, read-out: MIC (in vitro antimycoplasmal activity)
M. synoviae 25204 = assay: Antimycoplasmal MIC, metabolic-inhibition test, M. synoviae 25204; format: cell-based; details: Mycoplasmopsis synoviae, 168 h, dilutions 250-0.5 μg/ml, 37° C., seven days, read-out: MIC (in vitro antimycoplasmal activity)

## C/C(=C\C(=O)OCCCCCCCCC(=O)O)C[C@@H]1OC[C@H](C[C@@H]2O[C@H]2[C@@H](C)[C@H](C)O)[C@@H](O)[C@H]1O [Pseudomonic acid]
Pasteurella multocida
  antibacterial activity (in words): has activity
M. synoviae ATCC 25204; 200 mg/kg i.m. twice per day
  prevented the development of airsac lesions: four out of five birds
  re-isolation of M. synoviae from airsacs (in words): not re-isolated from the airsacs of any
M. synoviae ATCC 25204; 200 mg/kg × 7 i.m., autopsy seven days after infection
  Number birds protected/total: 4/5
M. synoviae ATCC 25204; 200 mg/kg × 7 i.m., seven days after infection
  Number of birds from which M. synoviae was re-isolated: 0
M. synoviae ATCC 25204; chicken
  activity in vivo in experimentally induced mycoplasmal infection (in words): active in vivo
Haemophilus influenzae
  MIC: 0.12 µg/mL (≈ 0.24 µM)
Haemophilus influenzae; including strains resistant to other antibiotics
  antibacterial activity / susceptibility (in words): very susceptible; also recorded: particularly high activity
[1]; im
  Cmax: 15800 ng/mL
  dose excreted: < 1%
[1]; iv
  Cmax: 66700 ng/mL
  dose excreted: < 1%
Streptococcus pneumoniae
  MIC: 0.12 µg/mL (≈ 0.24 µM)
Streptococcus pyogenes
  MIC: 0.25 µg/mL (≈ 0.499 µM)
Toxicity (LD50), rat; iv
  LD50: 1310 to 2560 mg/kg
Toxicity (LD50), rat; po
  LD50: 5000 mg/kg
Toxicity (LD50), rat; sc
  LD50: 5000 mg/kg
Toxicity (LD50), rat; three routes
  toxicity (in words): low degree of toxicity
streptococci
  antibacterial activity (in words): good activity
Neisseria meningitidis
  MIC: 0.02 µg/mL (≈ 0.0399 µM)
M. pulmonis 'JB' [2]; Expt 1, day 3 after infection
  Number of mice with arthritis/total number mice: 0/6
M. pulmonis 'JB' [2]; Expt 1, day 7 after infection
  Number of mice with arthritis/total number mice: 1/5
M. pulmonis 'JB' [2]; Expt 1, day 10 after infection
  Number of mice with arthritis/total number mice: 1/5
M. pulmonis 'JB' [2]; Expt 1, day 14 after infection
  Number of mice with arthritis/total number mice: 1/5
M. pulmonis 'JB' [2]; Expt 2, day 3 after infection
  Number of mice with arthritis/total number mice: 0/8
M. pulmonis 'JB' [2]; Expt 2, day 8 after infection
  Number of mice with arthritis/total number mice: 2/8
M. pulmonis 'JB' [2]; Expt 2, day 10 after infection
  Number of mice with arthritis/total number mice: 2/8
M. pulmonis 'JB' [2]; Expt 2, day 14 after infection
  Number of mice with arthritis/total number mice: 4/8
M. pulmonis 'JB' [2]; first experiment
  prevented the development of arthritis: four out of five mice
M. pulmonis 'JB' [2]; mice
  activity in vivo in experimentally induced mycoplasmal infection (in words): active in vivo
M. pulmonis 'JB' [2]; second experiment
  prevented the development of arthritis: four out of eight mice
Toxicity (LD50), mouse; iv
  LD50: 1640 to 2050 mg/kg
Toxicity (LD50), mouse; p.c. (so in the source)
  LD50: 5000 mg/kg
Toxicity (LD50), mouse; sc
  LD50: 4000 to 5000 mg/kg
Toxicity (LD50), mouse; three routes
  toxicity (in words): low degree of toxicity
[3]
  MIC: 0.25 µg/mL (≈ 0.499 µM)
[4]; po
  Cmax: < 1000 ng/mL
  dose excreted: < 1%
[4]; sc
  Cmax: 7200 ng/mL
  dose excreted: < 1%
Streptococcus faecalis
  MIC: 50 µg/mL (≈ 99.9 µM)
[5]
  antibacterial activity (in words): has activity
staphylococci
  antibacterial activity (in words): good activity
Gram-negative bacilli
  antibacterial activity (in words): relatively inactive
[6]; im
  Cmax: 40000 ng/mL
  dose excreted: 2%
[6]; po
  Cmax: 26800 ng/mL
  dose excreted: 1.5%
Staphylococcus aureus
  MIC: 0.25 µg/mL (≈ 0.499 µM)
Mycoplasma species; Mycoplasma sp, b37: most mycoplasma species
  antimycoplasmal activity / sensitivity (in words): very sensitive; also recorded: particularly high activity
Mycoplasma species; Mycoplasma species
  MIC: <0.01 to 25 µg/mL
[7]; im
  Cmax: 25300 ng/mL
  dose excreted: 1%
[7]; po
  Cmax: 3600 ng/mL
  dose excreted: < 1%
Neisseria gonorrhoeae; Neisseria gonorrhoeae
  MIC: 0.01 µg/mL (≈ 0.02 µM)
Neisseria gonorrhoeae; Neisseria gonorrhoeae (gonococci), including strains resistant to other antibiotics
  antibacterial activity / susceptibility (in words): very susceptible; also recorded: particularly high activity

## C/C(=C\C(=O)OCCCCCCCCC(=O)O)C[C@@H]1OC[C@H](C[C@@H]2O[C@H]2[C@@H](C)[C@H](C)O)[C@@H](O)[C@H]1O [Pseudomonic acid (Na salt)]
M. suipneumoniae (Laber)
  MIC: 1.9 to 3.9 µg/mL
M. pulmonis 'JB' [8]
  MIC: < 0.5 µg/mL
M. pneumoniae 427 a
  MIC: < 0.5 µg/mL
M. dispar H225
  MIC: < 0.5 µg/mL
M. gallisepticum S6
  MIC: 7.8 µg/mL
[9]
  antimycoplasmal activity in vitro (in words): good antimycoplasmal activity in vitro
M. fermentans MW KL 4
  MIC: < 0.5 µg/mL
M. bovis 25025
  MIC: < 0.5 µg/mL
M. synoviae 25204
  MIC: < 0.5 µg/mL

## COC(=O)CCCCCCCCOC(=O)/C=C(\C)C[C@@H]1OC[C@H](C[C@@H]2O[C@H]2[C@@H](C)[C@H](C)O)[C@@H](O)[C@H]1O [methyl pseudomonate]
M. suipneumoniae (Laber)
  MIC: 7.8 µg/mL (≈ 15.2 µM)
M. pulmonis 'JB' [8]
  MIC: < 0.5 µg/mL
M. pneumoniae 427 a
  MIC: 7.8 µg/mL (≈ 15.2 µM)
M. dispar H225
  MIC: < 0.5 µg/mL
M. gallisepticum S6
  MIC: 15.6 µg/mL (≈ 30.3 µM)
[9]
  antimycoplasmal activity in vitro (in words): good antimycoplasmal activity in vitro
M. fermentans MW KL 4
  MIC: < 0.5 µg/mL
M. bovis 25025
  MIC: < 0.5 µg/mL
M. synoviae 25204
  MIC: < 0.5 µg/mL
